Measured values as given in patent publication US20230331679A1, “NAPHTHALENE MONOIMIDE COMPOUNDS AND METHODS THEREOF” (JAWAHARLAL NEHRU CENTRE FOR ADVANCED SCIENTIFIC RESEARCH, priority 2020, published 2023).

How the values were obtained:
Aβ42 = target: T1, Aβ42 (Homo sapiens, UniProt P05067); assay: ThT binding assay, inhibition of Aβ42 fibrillar assembly; type: biochemical; details: for inhibitory effect on Aβ42 aggregation (ThT NFI at 482 nm): 1:1 molar ratio, 10 µM Aβ42, 10 µM inhibitor, 72 h; for decrease in the formation of Aβ aggregates: Aβ42/inhibitor 1:1, Aβ42 10 µM; for decrease in the formation of Aβ aggregates / Aβ aggregation decreased to: third day of incubation
T1 construct: commercially available β-amyloid peptide (1-42), human; purchased marck (so in the source) PP69-.025 mg
Description: (§1) Monomeric form of Aβ42 peptide was prepared by dissolving 0.25 mg of commercially available β-amyloid peptide (1-42), human (cat: PP69-.025 mg), marck peptide in 250 µL of hexafluoro-2-propanol (HFIP) solvent to obtain a Aβ42 solution. This solution was incubated at room temperature for 1 hour, further to which the HFIP solvent was removed by nitrogen gas flow to obtain the monomeric Aβ42 peptide. To prepare a fibrillar sample of Aβ42 peptide, 0.025 mg of Aβ42 peptide was dissolved in […] of PBS buffer (pH = 7.4; contains 2% of DMSO or 100 mM NaOH) to obtain a monomeric Aβ42 solution and the peptide concentration in this solution was calculated through UV-Visible absorbance studies (ε = 1450 cm^-1 M^-1). The Aβ42 monomeric solution was incubated for 5 days in PBS buffer (pH = 7.4) to allow for the full phase formation of Aβ42 fibrils. The presence of Aβ42 fibrils was further confirmed by ThT assay.
Initially, the ability of the prepared NMI compounds, TGR63-68 to inhibit Aβ42 fibrillar assembly at 1:1 molar ratio with Aβ42 fibrils was evaluated using thioflavin (ThT) binding assay. 10 µM of Aβ42 fibrils in the absence (Ctrl) and the presence of 10 µM of inhibitors individually were incubated for 72 h. A normalized data for fluorescence intensity (NFI) of ThT at 482 nm (λex = 442 nm) was measured as represented in FIG. 1(a).
(§2) The ability of NMI compounds (TGR63, TGR64 and TGR65) to prevent Aβ42 fibrillar assembly (inhibition) and to break down the preformed fibrils (dissolution) was evaluated using thioflavin (ThT) binding assay. Aβ42 fibrils at a concentration of 10 µM and its aggregates, were used to study the effect of NMI compounds (TGR63, TGR64 and TGR65) at varying concentrations on both inhibition and dissolution assays. For the inhibition assay, all the NMI compounds (TGR63, TGR64 and TGR65) were added independently to Aβ peptide (10 µM) at 0 h of the experiment, whereas for the aggregates dissolution assay they were added to Aβ42 fibrillar aggregates grown for 2 days. Upon incubating for a predetermined period, Aβ42 inhibitor samples were analyzed using ThT by measuring the fluorescence change at 485 nm as presented in FIG. 1(b) and FIG. 1(c), wherein the error bars represent the standard deviation (SD) of the fluorescence measurement. Fluorescence values were normalized to maximal fluorescence intensity at 485 nm compared to that of the control (Aβ42 with no inhibitor). Experiments were performed at various stoichiometric ratios (Aβ42/inhibitor) of 1:1, 1:2, and 1:5 with a fixed concentration of Aβ42 at 10 µM. Each experiment was repeated three times (n = 3). […] TGR 63 recorded 80% dissolution efficiency while TGR 64 and TGR 65 recorded 75% and 78% dissolution efficiency respectively, for the stoichiometric ratio of 1:5.

[1] = target: T2, Aβ42 fibrillar aggregates (Homo sapiens, UniProt P05067); assay: ThT binding assay, dissolution of preformed Aβ42 fibrils; type: biochemical; details: after sixth day of incubation
T2 construct: commercially available β-amyloid peptide (1-42), human; purchased marck (so in the source) PP69-.025 mg
Description: as §1, §2

α-Syn = α-Syn (Homo sapiens, UniProt P37840); assay: ThT binding assay, α-Syn aggregation inhibition; type: biochemical
Excerpt: Parkinson’s disease (PD) is a neuronal disorder, mainly affects the motor system. α-Syn is a presynaptic neuronal protein that is linked neuropathologically to PD plays a vital role in the pathogenesis in a number of ways. Self-aggregation of α-Syn to form fibrillar aggregates and these toxic species mediate disruption of cellular homeostasis and cause neuronal death. These toxic aggregates affect various intracellular targets, especially synaptic function. In this context, NMI compounds of the present disclosure were used to study the possible modulation of α-Syn aggregation. The effect of NMI compounds (TGR63 and TGR64) on α-syn (100 µM) aggregation inhibition was studied through ThT binding assay. Experiments were performed at stoichiometric ratios (α-Syn:inhibitor) of 1:1, 1:2, and 1:5 with the fixed concentration of α-Syn at 100 µM.

PC12 cells = assay: Rescue of PC12 cells from Aβ42 toxicity (MTT cell viability assay); details: for viability at 40 µM: Rattus norvegicus, PC-12, 24 h, read-out: cell viability, PC12 cells, Aβ42 20 µM + compound 40 µM, 24 h; for enhancement in the viability of cells from Aβ toxicity: versus Aβ42 alone (54%)
Description: A 96-well plate was used to culture the cells (15,000 per well) with RPMI media (10% fetal bovine serum (FBS), 5% horse serum (HS,), and 1% pen-strep (PS)) at 37° C. temperature in a 5% CO2 atmosphere. Then the media was exchanged with low serum (2% FBS) media and monomeric Aβ42 was added in the absence and presence of NMI compounds and incubated for 24 h.
The structure-activity relationship (SAR) of NMI compounds towards rescuing PC12 cells from Aβ toxicity was investigated. […] Each experiment was repeated three times (n = 3), and error bars represent the standard deviation (SD).
An Alzheimer’s disease-like environment was mimicked by exposing the cultured PC12 cells to 20 µM of Aβ42 fibrils, which formed cytotoxic aggregation species in the growth media.

T2 sequence (P05067 672-713 limits assumed): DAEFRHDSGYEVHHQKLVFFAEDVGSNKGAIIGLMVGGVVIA
T1 sequence (P05067 672-713 limits assumed): as above

Structure (SMILES) | inhibitory effect on Aβ42 aggregation (ThT NFI at 482 nm) (Aβ42) | decrease in the formation of Aβ aggregates (Aβ42) | Aβ aggregation decreased to (Aβ42; Aβ42/inhibitor 1:2, Aβ42 10 µM) [%] | Aβ aggregation decreased to (Aβ42; Aβ42/inhibitor 1:5, Aβ42 10 µM) [%] | dissolution efficiency ([1]; Aβ42/inhibitor 1:1, Aβ42 10 µM) | dissolution efficiency ([1]; Aβ42/inhibitor 1:2, Aβ42 10 µM) | dissolution efficiency ([1]; Aβ42/inhibitor 1:5, Aβ42 10 µM) [%] | decrease in the formation of α-Syn aggregates (α-Syn; α-Syn:inhibitor 1:1, α-Syn 100 µM) | α-Syn aggregation decreased to (α-Syn; α-Syn:inhibitor 1:2, α-Syn 100 µM) [%] | α-Syn aggregation decreased to (α-Syn; α-Syn:inhibitor 1:5, α-Syn 100 µM) [%] | cell viability (PC12 cells; PC12 cells, Aβ42 20 µM + compound 40 µM, 24 h, Aβ42 alone 54%, untreated 100%) [%] | viability at 40 µM (PC12 cells; Aβ42 alone 54%, untreated 100%) [%] | enhancement in the viability of cells from Aβ toxicity (PC12 cells; PC12 cells)
CN(C)c1ccc(C#Cc2ccc3c4c(cccc24)C(=O)N(CCN)C3=O)cc1 [TGR64, 2-(2-aminoethyl)-6-((4-(dimethylamino)phenyl)ethynyl)-1H-benzo[de]isoquinoline-1,3(2H)-dione] | ~38% | ~ 50% | 75 | 90 | ~ 35% | ~ 50% | 75 | ~ 54% | 72 | 77 | 76 | 78 | –
CN(C)c1ccc(C#Cc2ccc3c4c(cccc24)C(=O)N(CCOCCO)C3=O)cc1 [TGR65, 6-((4-(dimethylamino)phenyl)ethynyl)-2-(2-(2-hydroxyethoxy)ethyl)-1H-benzo[de]isoquinoline-1,3(2H)-dione] | ~25% | ~ 50% | 75 | 90 | ~ 35% | ~ 50% | 78 | – | – | – | – | 62 | –
C[N+](C)(C)CCN1C(=O)c2cccc3cccc(c23)C1=O [TGR66, 2-(1,3-dioxo-1H-benzo[de]isoquinolin-2(3H)-yl)-N,N,N-trimethylethan-1-aminium] | ~ 10% | – | – | – | – | – | – | – | – | – | – | – | ~ 26%
CN(C)c1ccc2c3c(cccc13)C(=O)N(CC[N+](C)(C)C)C2=O [TGR67, 2-(6-(dimethylamino)-1,3-dioxo-1H-benzo[de]isoquinolin-2(3H)-yl)-N,N,N-trimethylethan-1-aminium] | ~7% | – | – | – | – | – | – | – | – | – | – | – | ~22%
C[N+](C)(C)CCN1C(=O)c2cccc3c(C#Cc4ccccc4)ccc(c23)C1=O [TGR68, 2-(1,3-dioxo-6-(phenylethynyl)-1H-benzo[de]isoquinolin-2(3H)-yl)-N,N,N-trimethylethan-1-aminium] | ~5% | – | – | – | – | – | – | – | – | – | – | – | ~8%
